The results in this text go back to patent US10246429B2, “Vinyl fluoride cyclopropyl fused thiazin-2-amine compounds as beta-secretase inhibitors and methods of use” (AMGEN INC., priority 2015, dated 2019).

Experiment [1] deals with T1, BACE1 (Homo sapiens (Human), UniProt P56817). Briefly: In vitro enzymatic BACE1 FRET assay. Format: biochemical. The following applies: read-out: IC50 IP (μM) BACE1 Enzyme.
Target sequence in this assay (P56817 46-501): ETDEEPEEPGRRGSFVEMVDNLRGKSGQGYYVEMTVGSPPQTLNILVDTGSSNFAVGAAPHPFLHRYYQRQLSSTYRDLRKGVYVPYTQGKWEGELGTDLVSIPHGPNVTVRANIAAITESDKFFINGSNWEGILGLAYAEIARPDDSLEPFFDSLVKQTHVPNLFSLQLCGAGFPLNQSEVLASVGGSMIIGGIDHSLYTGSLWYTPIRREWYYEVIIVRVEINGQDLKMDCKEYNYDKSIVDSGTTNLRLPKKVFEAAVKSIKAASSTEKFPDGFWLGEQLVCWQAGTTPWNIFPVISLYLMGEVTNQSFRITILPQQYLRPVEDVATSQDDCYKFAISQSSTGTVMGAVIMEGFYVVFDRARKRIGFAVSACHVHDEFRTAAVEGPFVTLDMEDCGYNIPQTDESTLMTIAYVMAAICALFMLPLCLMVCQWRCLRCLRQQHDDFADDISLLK
Excerpt: (§1) In Vitro Enzymatic BACE1 and BACE2 FRET (Fluorescence Resonance Energy Transfer) Assays (Enzyme Assay Data in Table 1)
For experiment [2], the target named is T1, BACE1. Briefly: BACE1 cell assay. The format is cell-based.
Target sequence in this assay (P56817 46-501, species assumed): as the sequence (P56817 46-501) above
In experiment [3] the target is BACE2 (Homo sapiens (Human), UniProt Q9Y5Z0). Briefly: In vitro enzymatic BACE2 FRET assay. The format is biochemical. As to conditions: read-out: IC50 IP (μM) BACE2 Enzyme.
Sequence of BACE2 (Q9Y5Z0 63-518): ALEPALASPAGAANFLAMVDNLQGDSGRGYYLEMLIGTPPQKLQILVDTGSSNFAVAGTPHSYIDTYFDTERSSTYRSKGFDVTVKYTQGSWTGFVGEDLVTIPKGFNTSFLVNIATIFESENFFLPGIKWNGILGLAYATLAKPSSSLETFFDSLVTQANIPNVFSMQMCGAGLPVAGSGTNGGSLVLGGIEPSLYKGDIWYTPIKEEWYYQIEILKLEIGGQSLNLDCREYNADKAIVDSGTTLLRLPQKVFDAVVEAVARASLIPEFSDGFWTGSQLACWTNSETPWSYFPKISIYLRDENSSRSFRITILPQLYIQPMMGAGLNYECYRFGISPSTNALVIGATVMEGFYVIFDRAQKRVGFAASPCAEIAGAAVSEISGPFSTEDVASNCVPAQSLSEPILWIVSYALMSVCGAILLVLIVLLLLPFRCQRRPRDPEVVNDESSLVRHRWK
Excerpt: as §1
Where [4] appears, read: read-out: IC50 IP (μM) BACE1 Cell.

As for `C[C@]1(c2cc(/C=C(\F)c3ccc(C#N)cn3)ccc2F)N=C(N)S[C@@]2(C(=O)N3CC[C@H](O)C3)C[C@H]21` [Example 125, 6-((Z)-2-(3-((1S,5S,6S)-3-amino-1-((S)-3-hydroxypyrrolidine-1-carbonyl)-5-methyl-2-thia-4-azabicyclo[4.1.0]hept-3-en-5-yl)-4-fluorophenyl)-1-fluorovinyl)nicotinonitrile], the IC50 in experiment [1] was found to be 0.000592 µM; in experiment [2] (setting [4]), 0.000986 µM; in experiment [3] it was 0.0364 µM.
With `COC(=O)[C@]12C[C@H]1[C@@](C)(c1cc(/C=C(\F)c3cnc(Cl)cn3)ccc1F)N=C(N)S2` [Example 149, (1S,5S,6S)-methyl 3-amino-5-(5-((Z)-2-(5-chloropyrazin-2-yl)-2-fluorovinyl)-2-fluorophenyl)-5-methyl-2-thia-4-azabicyclo[4.1.0]hept-3-ene-1-carboxylate], the figures for the IC50 in experiment [1], in experiment [2] (setting [4]) and in experiment [3] were 0.0352 µM, 0.883 µM and 0.206 µM, respectively.
For `COC(=O)[C@]12C[C@H]1[C@@](C)(c1cc(/C=C(\F)c3cnc(OCc4ncco4)cn3)ccc1F)N=C(N)S2` [Example 150, (1S,5S,6S)-methyl 3-amino-5-(2-fluoro-5-((Z)-2-fluoro-2-(5-(oxazol-2-ylmethoxy)pyrazin-2-yl)vinyl)phenyl)-5-methyl-2-thia-4-azabicyclo[4.1.0]hept-3-ene-1-carboxylate], the IC50 is 0.0535 µM in experiment [1], 0.379 µM in experiment [2] (setting [4]) and 2.42 µM in experiment [3].
As to `Cc1cc(C#N)cnc1/C(F)=C/c1ccc(F)c([C@@]2(C)N=C(N)S[C@@]3(C(=O)N4CCOCC4)C[C@H]32)c1` [Example 160, 6-((Z)-2-(3-((1S,5S,6S)-3-amino-5-methyl-1-(morpholine-4-carbonyl)-2-thia-4-azabicyclo[4.1.0]hept-3-en-5-yl)-4-fluorophenyl)-1-fluorovinyl)-5-methylnicotinonitrile], the IC50 in experiment [1] came to 0.00734 µM; in experiment [2], 0.0149 µM; in experiment [3] it was 0.0891 µM.
Regarding `C[C@]1(c2cc(/C=C(\F)c3cnc(C#N)cn3)ccc2F)N=C(N)S[C@@]2(C(=O)N3CC[C@H](F)C3)C[C@H]21` [Example 202, 5-((Z)-2-(3-((1S,5S,6S)-3-amino-1-((S)-3-fluoropyrrolidine-1-carbonyl)-5-methyl-2-thia-4-azabicyclo[4.1.0]hept-3-en-5-yl)-4-fluorophenyl)-1-fluorovinyl)pyrazine-2-carbonitrile], the IC50 in experiment [1] was determined as 0.001 µM; in experiment [2] (setting [4]) it was 0.001 µM; in experiment [3], 0.04 µM.
In the case of `C[C@]1(c2cc(/C=C(\F)c3cnc(C#N)cn3)ccc2F)N=C(N)S[C@@]2(C(=O)N3CC[C@@H](F)C3)C[C@H]21` [Example 203, 5-((Z)-2-(3-((1S,5S,6S)-3-amino-1-((R)-3-fluoropyrrolidine-1-carbonyl)-5-methyl-2-thia-4-azabicyclo[4.1.0]hept-3-en-5-yl)-4-fluorophenyl)-1-fluorovinyl)pyrazine-2-carbonitrile], the values for the IC50 in experiment [1], in experiment [2] (setting [4]) and in experiment [3] were 0.001 µM, 0.001 µM and 0.045 µM, respectively.
With `C[C@]1(c2cc(/C=C(\F)c3cnc(C#N)cn3)ccc2F)N=C(N)S[C@@]2(C(=O)N3CCCC3)C[C@H]21` [Example 204, 5-((Z)-2-(3-((1S,5S,6S)-3-amino-5-methyl-1-(pyrrolidine-1-carbonyl)-2-thia-4-azabicyclo[4.1.0]hept-3-en-5-yl)-4-fluorophenyl)-1-fluorovinyl)pyrazine-2-carbonitrile], the IC50 turned out to be 0.001 µM in experiment [1], 0.003 µM in experiment [2] and 0.048 µM in experiment [3].
Regarding `C#C[C@H](C)Oc1cnc(/C(F)=C/c2ccc(F)c([C@@]3(C)N=C(N)S[C@@]4(C(C)=O)C[C@H]43)c2)cn1` [Example 237, 1-((1S,5S,6S)-3-amino-5-(5-((Z)-2-(5-((S)-but-3-yn-2-yloxy)pyrazin-2-yl)-2-fluorovinyl)-2-fluorophenyl)-5-methyl-2-thia-4-azabicyclo[4.1.0]hept-3-en-1-yl)ethanone], the concentration for half-maximal inhibition (IC50) amounted to 0.0032 µM in experiment [1], 0.0339 µM in experiment [2] (setting [4]) and 0.438 µM in experiment [3].
As to `C#CCOc1cnc(/C(F)=C/c2ccc(F)c([C@@]3(C)N=C(N)S[C@@]4(C(N)=O)C[C@H]43)c2)cn1` [Example 239, (1S,5S,6S)-3-amino-5-(2-fluoro-5-((Z)-2-fluoro-2-(5-(prop-2-yn-1-yloxy)pyrazin-2-yl)vinyl)phenyl)-5-methyl-2-thia-4-azabicyclo[4.1.0]hept-3-ene-1-carboxamide], the half-maximal inhibitory concentration (IC50) in experiment [1] was determined as 0.0013 µM; in experiment [2], 0.0029 µM; in experiment [3] it was 0.177 µM.
Consider `C[C@]1(c2cc(/C=C(\F)c3ccc(C#N)cn3)cnc2F)N=C(N)S[C@@]2(C(=O)N3CCC(F)(F)C3)C[C@H]21` [Example 259, 6-((Z)-2-(5-((1S,5S,6S)-3-amino-1-(3,3-difluoropyrrolidine-1-carbonyl)-5-methyl-2-thia-4-azabicyclo[4.1.0]hept-3-en-5-yl)-6-fluoropyridin-3-yl)-1-fluorovinyl)nicotinonitrile], for which the IC50 in experiment [1] was found to be 0.0095 µM; in experiment [2] (setting [4]) it was 0.0309 µM; in experiment [3], 0.113 µM.
With `C#CCOc1cnc(/C(F)=C/c2cnc(F)c([C@@]3(C)N=C(N)S[C@@]4(C(=O)N5CCOC[C@H]5C)C[C@H]43)c2)cn1` [Example 283, ((1S,5S,6S)-3-amino-5-(2-fluoro-5-((Z)-2-fluoro-2-(5-(prop-2-yn-1-yloxy)pyrazin-2-yl)vinyl)pyridin-3-yl)-5-methyl-2-thia-4-azabicyclo[4.1.0]hept-3-en-1-yl)((R)-3-methylmorpholino)methanone], the IC50 in experiment [1] was 0.0017 µM; in experiment [2] (setting [4]), 0.0044 µM; in experiment [3], 0.375 µM.
Regarding `COC[C@]12C[C@H]1[C@@](C)(c1cc(/C=C(\F)c3ccc(Cl)cn3)ccc1F)N=C(N)S2` [Example 286, (1S,5S,6S)-5-(5-((Z)-2-(5-chloropyridin-2-yl)-2-fluorovinyl)-2-fluorophenyl)-1-(methoxymethyl)-5-methyl-2-thia-4-azabicyclo[4.1.0]hept-3-en-3-amine], the figures for the IC50 in experiment [1], in experiment [2] (setting [4]) and in experiment [3] were 0.0712 µM, 0.346 µM and 0.069 µM, respectively.
`C#CCOc1cnc(/C(F)=C/c2ccc(F)c([C@@]3(C)N=C(N)S[C@@]4(C(=O)N5CC[C@@H](F)C5)C[C@H]43)c2)cn1` [Example 297, ((1S,5S,6S)-3-amino-5-(2-fluoro-5-((Z)-2-fluoro-2-(5-(prop-2-yn-1-yloxy)pyrazin-2-yl)vinyl)phenyl)-5-methyl-2-thia-4-azabicyclo[4.1.0]hept-3-en-1-yl)((R)-3-fluoropyrrolidin-1-yl)methanone]: the IC50 in experiment [1] came out at 0.0009 µM; in experiment [2] (setting [4]), 0.0004 µM; in experiment [3], 0.041 µM.
With `C#CCOc1cnc(/C(F)=C/c2ccc(F)c([C@@]3(C)N=C(N)S[C@@]4(C(=O)N5CC[C@H](F)C5)C[C@H]43)c2)cn1` [Example 303, ((1S,5S,6S)-3-amino-5-(2-fluoro-5-((Z)-2-fluoro-2-(5-(prop-2-yn-1-yloxy)pyrazin-2-yl)vinyl)phenyl)-5-methyl-2-thia-4-azabicyclo[4.1.0]hept-3-en-1-yl)((S)-3-fluoropyrrolidin-1-yl)methanone], the 50% inhibitory concentration (IC50) was determined as 0.0004 µM in experiment [1], 0.0005 µM in experiment [2] (setting [4]) and 0.093 µM in experiment [3].

The term IC50 denotes the concentration that gives 50% inhibition.
